Assay in all cases: DTP human tumour cell line panel, 48 h
The subject of assay [1] is OVCAR-3 ovarian.
The subject of assay [2] is SK-MEL-5 melanoma.
Assay [3] concerns ACHN renal.
Assay [4] concerns HOP-62 NSCLC.
The test system of assay [5] is DU-145 prostate.
In assay [6] the test system is MDA-MB-435.
In assay [7] the test system is SNB-75 CNS.
For assay [8], the system named is M14 melanoma.
The test system of assay [9] is HCT-15 colon.

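These data come from cells grown in 96-well plates and exposed to compound for 48 hours at five concentrations. At the GI50, growth is halved. TGI is the concentration that stops growth completely.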 Bounds are passed on as bounds.

What is called GI50 is the concentration giving 50% growth inhibition. As a reminder, the TGI is the concentration giving total growth inhibition. A higher TGI goes with lower sensitivity of the cells.

As to `CC1(C)CC(=O)C2=C(C1)OC(N)=C(c1nc(-c3ccccc3)cs1)C2c1ccc(Br)cc1` (stereo unspecified), the GI50 in assay [1] was 59.7 µg/mL; in assay [2] it was 38.7 µg/mL; in [3], 61.5 µg/mL; in assay [4] it was 54.4 µg/mL; in [5], 70.9 µg/mL; in assay [6], 92.6 µg/mL. Besides, the GI50 in [7] is 0.547 µg/mL; in [8], 103 µg/mL; in assay [9] it was 36.1 µg/mL. Further, the TGI in [1], in [2], in [3], in assay [4], in assay [5] and in [6] was more than 150 µg/mL in each case. For the same compound, the TGI was 46.9 µg/mL in assay [7], more than 150 µg/mL in assay [8] and more than 150 µg/mL in assay [9].

As for `COc1ccc(-c2cc(C(=O)Nc3ccc(C)c(C)c3)nc(NC#N)n2)cc1`, the TGI in assay [1], in assay [2], in [3], in assay [7], in assay [8] and in assay [9] was more than 100 µM in each case.

As for `NC(=O)c1csc(C2OC(COP(=O)(O)CP(=O)(O)OCC3OC(n4cnc5c(N)ncnc54)C(O)C3O)C(O)C2O)n1` (stereo unspecified), the TGI in assay [1], in [2], in assay [3], in [4], in assay [7] and in [8] was more than 100 µM in each case. The same compound showed a TGI in [9] of more than 100 µM.

As for `N#CC(C#N)c1ccc(C(=O)N2CCC[C@H]2CO)cc1`, the TGI in assay [1], in assay [2], in assay [3], in assay [4], in assay [7] and in [8] was more than 100 µM in each case. Further, the TGI in assay [9] was more than 100 µM.

For the compound `C=C1CCC2[C@@H](CCC3[C@]2(C)CCC[C@]3(C)C(=O)OC)C1CC=O` (stereo partly specified), the total growth inhibition concentration (TGI) was 27.7 µM in assay [1]; 33.9 µM in assay [2]; 30 µM in [3]; 39.8 µM in assay [4]; 30.6 µM in assay [8]; 43.6 µM in assay [9]. Also, in assay [4], the GI50 was 21.2 µM.

Consider `CC12CCC(=O)N1c1ccc([N+](=O)[O-])cc1N2` (stereo unspecified), for which the TGI in assay [1], in assay [2], in [3], in assay [4], in [7] and in assay [8] was more than 100 µM each time. This compound also returned a TGI in assay [9] of more than 100 µM.

On to `O=C(CC1SC(=Nc2ccccc2Cl)NC1=O)Nc1ccc(Cl)cc1Cl` (stereo unspecified), for which the TGI in assay [1], in [2], in assay [3], in [4], in assay [7] and in assay [8] was more than 100 µM throughout.

With `CCCCCO/N=C\c1c2c(O)c3c(O)c(C)c4c(c3c1O)C(=O)C(C)(O/C=C\C(OC)C(C)C(OC(C)=O)C(C)C(O)C(C)C(O)C(C)/C=C\C=C(\C)C(=O)N2)O4` (stereo unspecified), the GI50 in assay [1] was 1.5 µM; in [2] it was 1.5 µM; in [3], 1.8 µM; in assay [4] it was 1.65 µM; in assay [5], 1.93 µM; in [6] it was 1.81 µM. Besides, the results for the GI50 in assay [7], in [8] and in [9] were 1.46 µM, 1.62 µM and 1.79 µM, respectively. Moreover, the TGI in assay [1] was 2.82 µM; in assay [2], 2.82 µM; in assay [3], 3.33 µM; in [4], 3.04 µM; in [5] it was 4.29 µM; in [6] it was 3.68 µM. In addition, the TGI in assay [7] was 2.87 µM; in assay [8], 3.01 µM; in assay [9] it was 3.31 µM.

For the compound `CCOC(=O)/C(C#N)=C(O)/C(=C\c1ccc(Br)cc1)NC(=O)c1ccccc1`, the TGI in assay [1], in [2], in [3], in [4], in assay [7] and in [8] was more than 100 µM in each case. The compound also gave a TGI in assay [9] of more than 100 µM.

For `O=S(=O)(c1cccc(N=C=S)c1)c1cccc(N=C=S)c1`, the TGI was determined as 24 µM in assay [1]; 36.3 µM in assay [2]; 34.5 µM in assay [3]; 26.5 µM in [4]; 25.6 µM in [8]; 33.8 µM in assay [9].

With `N#Cc1ccc(C=NC23CC4CC(CC(C4)C2)C3)cc1`, the TGI in [1], in assay [3], in assay [4], in [8] and in assay [9] was more than 100 µM each time.

With `O=C1Nc2ccccc2N=CC1NC(=O)C(c1ccccc1)c1ccccc1` (stereo unspecified), the concentration for total growth inhibition (TGI) in assay [1], in assay [2], in assay [3], in assay [4], in assay [7] and in assay [8] was more than 100 µM throughout. In addition, the TGI in assay [9] is more than 100 µM.

Take `CCCCCCCCCCCCC(Br)C(=O)NCC(N)=O` (stereo unspecified): the TGI in [1] is 32.1 µM; in [2], 18.4 µM; in [3] it was 29.2 µM; in assay [4], 29.3 µM; in assay [7], 11.6 µM; in [8], 24.6 µM. In assay [9], this compound had a TGI of 28.7 µM.

For the compound `COCOCC/C=C/C=O`, the TGI in assay [1], in assay [2], in assay [3], in [7], in assay [8] and in assay [9] was more than 100 µM in each case.

As to `COCCNC(=O)C1C(=O)C(=O)N(CCOC)C1=O` (stereo unspecified), the TGI in assay [1], in assay [2], in assay [3], in assay [4], in assay [7] and in assay [8] was more than 100 µM in each case. In assay [9], this compound displayed a TGI of more than 100 µM.
